In ChEMBL document CHEMBL5303304, “EUbOPEN Chemogenomics Library - IncuCyte” (2023):

Columns and labels:
Format in all cases: toxicity, cell-based
[1] = system: Fibroblast; assay: Incucyte cell viability with human fibroblast; conditions: 10 µM, compound concentration 10 uM
[2] = system: U2OS; assay: Incucyte cell viability with U2OS; conditions: human, 10 µM, compound concentration 10 uM
[3] = system: HEK-293T; assay: Incucyte cell viability with HEK293T; conditions: human, 10 µM, compound concentration 10 uM
Also: unitless GR value; below 1 slowed growth and below 0 cell loss.

SMILES | Growth Rate ([1]; 6 h, replicate number 1) | Growth Rate ([1]; 6 h, replicate number 2) | Growth Rate ([1]; 12 h, replicate number 1) | Growth Rate ([1]; 18 h, replicate number 2) | Growth Rate ([1]; 24 h, replicate number 1) | Growth Rate ([1]; 24 h, replicate number 2) | Growth Rate ([2]; 6 h, replicate number 1) | Growth Rate ([2]; 6 h, replicate number 2) | Growth Rate ([2]; 12 h, replicate number 1) | Growth Rate ([2]; 12 h, replicate number 2) | Growth Rate ([2]; 18 h, replicate number 1) | Growth Rate ([2]; 24 h, replicate number 1) | Growth Rate ([3]; 6 h, replicate number 1) | Growth Rate ([1]; 12 h, replicate number 2) | Growth Rate ([2]; 18 h, replicate number 2) | Growth Rate ([2]; 24 h, replicate number 2) | Growth Rate ([3]; 6 h, replicate number 2) | Growth Rate ([3]; 12 h, replicate number 1) | Growth Rate ([3]; 18 h, replicate number 1) | Growth Rate ([3]; 24 h, replicate number 1) | other results
Cn1cc(C(=O)O)c2ccc(N3CCC(OCc4c(-c5c(Cl)cccc5Cl)noc4C4CC4)CC3)cc21 [TERN-101] | -0.66 | 0.73 | 0.61 | 0.97 | 0.37 | 0.87 | 0.86 | -0.83 | 0.74 | 0.96 | 0.87 | 0.91 | 0.97 |  |  |  |  |  |  |  | Growth Rate ([1]; 0 h, replicate number 2): 0.89; Growth Rate ([1]; 18 h, replicate number 1): 0.62; Growth Rate ([2]; 0 h, replicate number 1): -0.23
CCN1CCN(Cc2ccc(Nc3ncc(F)c(-c4cc(F)c5nc(C)n(C(C)C)c5c4)n3)nc2)CC1.CS(=O)(=O)O | 0.33 |  | -1 |  |  |  |  |  |  | 0.97 |  |  |  | 0.98 | 0.98 | 1 | 0.64 | 0.36 |  |  | Growth Rate ([1]; 0 h, replicate number 1): 0.5; Growth Rate ([3]; 0 h, replicate number 1): -0.17; Growth Rate ([3]; 0 h, replicate number 2): 0.21; Growth Rate ([3]; 12 h, replicate number 2): 0.38; Growth Rate ([3]; 18 h, replicate number 2): 0.6; Growth Rate ([3]; 24 h, replicate number 2): 0.76
CN(C)C(=O)Cn1cc(-c2ccc(-c3cncc4ccccc34)cc2)cn1 | 0.8 | -0.33 |  |  |  |  | 0.46 |  |  | 0.83 | 0.99 | 0.9 | 0.92 | 0.98 |  |  |  |  |  |  | Growth Rate ([1]; 0 h, replicate number 1): -1; Growth Rate ([2]; 0 h, replicate number 1): 0.61; Growth Rate ([3]; 0 h, replicate number 1): 0.29; Growth Rate ([3]; 0 h, replicate number 2): 0.39
CC[C@@H]1C(=O)N(C)c2cnc(Nc3ccc(C(=O)NC4CCN(C)CC4)cc3OC)nc2N1C1CCCC1 [BI-2536] |  |  |  | 0.83 | 0.41 | 0.46 |  |  | 0.69 | 0.59 | 0.34 | 0.08 | 0.45 |  | 0.42 | 0.3 | 0.73 | -0.09 | -0.18 | -0.17 | Growth Rate ([1]; 0 h, replicate number 2): -0.99; Growth Rate ([1]; 18 h, replicate number 1): 0.76; Growth Rate ([2]; 0 h, replicate number 2): 0.33; Growth Rate ([3]; 12 h, replicate number 2): 0.08; Growth Rate ([3]; 24 h, replicate number 2): -0.18
O=C(Nc1ccc(-n2nc(C(F)(F)F)cc2C(F)(F)F)cc1)c1ccncc1F | 0.37 | -1 | -1 | 0.72 | 0.81 | 0.69 | -0.16 | 0.41 | 0.54 | 0.63 | 0.8 | 0.69 | -0.04 | 0.14 | 0.66 | 0.77 | -0.25 | 0.33 | 0.25 | 0.31 | Growth Rate ([1]; 0 h, replicate number 1): -0.09; Growth Rate ([2]; 0 h, replicate number 2): -1; Growth Rate ([3]; 12 h, replicate number 2): 0.24; Growth Rate ([3]; 18 h, replicate number 2): 0.42; Growth Rate ([3]; 24 h, replicate number 2): 0.46
Cc1cccc(CC(=O)N2CCc3c2ccc(-c2cn(C)c4ncnc(N)c24)c3F)n1 | 0.64 | 0.98 | 0.46 | 0.69 | 0.52 | 0.58 | -0.61 |  | 0.43 |  | 0.31 | 0.59 | 0.02 | 0.94 | 0.97 | 0.71 | 0.26 | 0.24 | 0.4 | 0.46 | Growth Rate ([1]; 18 h, replicate number 1): 0.46; Growth Rate ([3]; 12 h, replicate number 2): 0.53; Growth Rate ([3]; 18 h, replicate number 2): 0.55; Growth Rate ([3]; 24 h, replicate number 2): 0.57
CS(=O)(=O)c1ccc(-c2cnc(N)c(C(=O)Nc3ccccc3)n2)cc1 |  |  |  |  | 0.85 | 0.74 |  |  | 0.87 |  | 0.77 | 0.88 | -0.29 |  | 0.93 | 0.77 | -0.17 | -0.15 | 0.01 | 0.07 | Growth Rate ([1]; 0 h, replicate number 1): -0.93; Growth Rate ([3]; 0 h, replicate number 2): 0.8; Growth Rate ([3]; 12 h, replicate number 2): -0.14; Growth Rate ([3]; 18 h, replicate number 2): -0.07; Growth Rate ([3]; 24 h, replicate number 2): 0.05
CCc1nc(-c2cccc(C)c2)c(-c2ccncc2)s1 |  | 1 | 0.95 |  |  |  |  | 0.83 |  |  |  |  |  |  |  |  | 0.9 |  | 0.99 |  | Growth Rate ([1]; 0 h, replicate number 1): -0.98; Growth Rate ([1]; 0 h, replicate number 2): 0.64; Growth Rate ([2]; 0 h, replicate number 2): 0.65; Growth Rate ([3]; 0 h, replicate number 1): -0.67
CCC(C(=O)Nc1ccc(-c2cc3ccccc3s2)c(C(N)=O)c1)c1nccs1 (centres undefined) | 0.22 | -0.79 | 0.72 | 0.9 | 0.96 |  | 0.65 | 0.92 | 0.41 | 0.59 | 0.47 | 0.72 | 0.31 |  | 0.8 | 0.86 | 0.23 | 0.59 | 0.48 | 0.47 | Growth Rate ([1]; 18 h, replicate number 1): 0.93; Growth Rate ([2]; 0 h, replicate number 1): 0.65; Growth Rate ([3]; 12 h, replicate number 2): 0.52; Growth Rate ([3]; 18 h, replicate number 2): 0.61; Growth Rate ([3]; 24 h, replicate number 2): 0.71
C[C@@]1(Cc2ccc(C#N)cc2)C(=O)N(c2cc(Cl)cc(Cl)c2)c2ncc(C(=O)NC3(c4nc(C5CCC5)no4)CC3)n21 [BI 9446] | 0.23 | -0.58 | 0.61 | 0.52 | 0.4 | 0.41 | 0.76 | 1 | 0.77 | 0.61 | 0.83 | 0.67 | 0.51 | 0.12 | 0.75 | 0.94 |  | 0.15 | 0.2 | 0.21 | Growth Rate ([1]; 0 h, replicate number 1): -1; Growth Rate ([1]; 0 h, replicate number 2): -0.17; Growth Rate ([1]; 18 h, replicate number 1): 0.41; Growth Rate ([2]; 0 h, replicate number 2): 0.34; Growth Rate ([3]; 0 h, replicate number 1): 0.53; Growth Rate ([3]; 12 h, replicate number 2): 0.74; Growth Rate ([3]; 18 h, replicate number 2): 0.52; Growth Rate ([3]; 24 h, replicate number 2): 0.48
CCN(C(=O)CO)[C@H]1CN(/C(=N\C#N)Nc2cccc(OC(F)F)c2)N=C1c1ccc(Cl)c(Cl)c1 |  | 0.31 |  |  |  | 0.98 | 1 |  |  |  | -0.52 | -0.49 |  | 0.8 |  |  | 0.79 |  | 0.96 | 0.91 | Growth Rate ([1]; 0 h, replicate number 2): 0.47; Growth Rate ([3]; 0 h, replicate number 2): -0.6
N#Cc1ccc(COc2ccc(Br)cc2CNCCO)cn1.O=CO |  | 0.73 | 0.85 | 0.6 |  | 0.89 |  |  | 1 |  |  |  |  | 0.87 |  |  |  |  | 1 |  | Growth Rate ([3]; 0 h, replicate number 2): 0.83
C[S+]([O-])c1ccc(-c2nc(-c3cccc(I)c3)c(-c3ccncc3)[nH]2)cc1 (centres undefined) |  | 0.66 |  |  |  |  |  | 0.79 |  | 0.8 | 0.97 | 1 |  |  | 0.75 | 0.65 |  | 0.87 | 0.99 | 0.99 | Growth Rate ([2]; 0 h, replicate number 1): -0.99; Growth Rate ([3]; 0 h, replicate number 1): -0.57; Growth Rate ([3]; 0 h, replicate number 2): -1
Cl.NCC(O)c1ccc(O)cc1 (centres undefined) [OCTOPAMINE HYDROCHLORIDE] |  | -0.67 |  |  |  |  | 0.64 | 0.65 | 0.99 | 0.92 | 0.83 | 0.97 | 0.45 | 0.8 | 0.87 | 0.95 | 0.94 |  |  |  | Growth Rate ([1]; 18 h, replicate number 1): -0.19; Growth Rate ([2]; 0 h, replicate number 1): 0.94; Growth Rate ([2]; 0 h, replicate number 2): -0.87; Growth Rate ([3]; 0 h, replicate number 1): 0.76; Growth Rate ([3]; 0 h, replicate number 2): 0.66
CN(CCCCCCC1=C(c2cc(F)cc(F)c2)CCCc2cc(O)ccc21)CCCCS(=O)(=O)CCCC(F)(F)F | -0.99 | -1 | -0.97 | -0.88 | -0.77 | -0.65 | -0.96 | -0.93 | -0.94 | -0.68 | -0.87 | -0.72 | -0.95 |  | -0.58 | -0.49 | -0.98 | -0.48 | -0.16 | -0.1 | Growth Rate ([1]; 0 h, replicate number 1): -1; Growth Rate ([1]; 18 h, replicate number 1): -0.89; Growth Rate ([2]; 0 h, replicate number 1): -1; Growth Rate ([2]; 0 h, replicate number 2): -0.54; Growth Rate ([3]; 12 h, replicate number 2): -0.83; Growth Rate ([3]; 18 h, replicate number 2): -0.52; Growth Rate ([3]; 24 h, replicate number 2): -0.38
